Experiments:
[1] = test system: male and female Wistar rats; assay: Experiment 2: chronic treatment of male and female rats, 5-6 weeks; type: in vivo, rat; settings: for Food intake: n = 5; for testosterone: compared to the vehicle
Method: Twenty-five male and 25 female Wistar rats, 7-8 weeks of age, were randomly assigned to groups of five animals, respectively, for treatment with vehicle only (V), estradiol (E), (±)-Z-BDDA, (+)-Z-BDDA, or (−)-Z-BDDA. Each animal in group V received a daily 0.1 cc injection of a 10% ethanol-90% olive oil solution; the other treatments received their respective compound as a daily 0.1 cc injection, e.g., 2.5 μg of compound/g of body weight, in a 10% ethanol-90% olive oil solution. A temperature of 21° C. and an artificial 12-h light-dark cycle were maintained in the animal room. All animals were maintained on standard chow in powdered form, the males for five weeks and the females for six weeks, then sacrificed after an overnight fast under i.p. pentobarbital anesthesia (50 mg/kg). Animal weight and food intake were measured weekly during the study and subsequent FER values were determined. During sacrifice, blood was collected (via cardiac puncture) for glucose, luteinizing hormone, prolactin and testosterone measurements. The amounts of luteinizing hormone, prolactin and testosterone were measured to help elucidate the target tissue of the respective compounds in male and female rats. Immediately following sacrifice the fat pads and reproductive organs were removed and weighed.
(§1) Experiments 1 and 2 employed a randomized design. All data were analyzed by one-way analysis of variance (ANOVA,)and post-hoc comparisons were made with Tukey pairwise comparisons test. Significance was confirmed at p≦0.05 (SYSTAT 7.0, SPSS INC., 1997), and all values are reported as means±standard error of the mean.

[2] = test system: male and female Sprague-Dawley rats; assay: Experiment 1: chronic treatment of male and female rats, 4 weeks; type: in vivo, rat; settings: mean ± SEM; for Food intake: 2.5 ug/g of body weight daily injection; for Food intake / Food intake (g): n = 5
Method: Twenty-five male and 25 female Sprague-Dawley rats, 9-10 weeks of age, were randomly assigned to groups of five animals, respectively, as a control group (no treatment) (C), for treatment with vehicle only (V), estradiol (E), (±)-Z-BDDA, or (+)-Z-BDDA. Each animal in group V received a daily 0.1 cc injection of a 10% ethanol-90% olive oil solution; the other treatments received their respective compound as a daily 0.1 cc injection, e.g., 2.5 μg of compound/g of body weight, in a 10% ethanol-90% olive oil solution. A temperature of 21° C. and an artificial 12-h light-dark cycle was maintained in the animal room. All animals were maintained on standard chow in powdered form for four weeks, then sacrificed after an overnight fast under i.p. pentobarbital anesthesia (50 mg/kg). Animal weight and food intake were measured weekly during the study, and the subsequent food-efficiency ratio [FER(g of weight change/g of food intake)] was determined. During sacrifice, blood was collected (via cardiac puncture) for cholesterol measurements. Immediately following sacrifice the fat pads and reproductive organs were removed and weighed.
as §1

[3] = test system: primary porcine granulosa cells; assay: In situ apoptosis assay in primary porcine granulosa cells; type: cell-based; settings: for mean apoptosis (% area): 24 hr treatment, 0.1, 1 and 10 μM combined, serum-free MEM, controls 63.4% / 68.4%
Method: Porcine ovaries were obtained from local packing plants and transported to the laboratory on ice-cold Hank's balanced salt solution (HBSS). Each of the follicles was aspirated with an insulin syringe, and the follicular fluid was centrifuged at 3000 rpm and 4° C. for 15 min. The supernatant was poured off and the cells were washed in 5 mls of cold HBSS and centrifuged for another 10 min. The cells were again resuspended in HBSS, and the number of viable cells counted under the microscope using a hematocytometer. Once the number of cells was determined, the cells were centrifuged again for 10 min. and resuspended in the appropriate volume of Eagle's minimum essential media (MEM) containing 10% fetal bovine serum (FBS) and antibiotic/antimycotics. The cells were plated at 250,000 per well in 8 chamber microscope slides (Nunc, Naperville, Ill.) which were pre-treated with poly-L-lysine for 10 min. The slides were incubated at 5% CO2/95% air at 37° C. Approximately 12 hours later, the medium was removed by vacuum and replaced with pre-warmed, serum-free MEM. Cells were then treated for 2-3 hrs with MEM only to wash out any estrogen effects from the serum (Winters et al. (1994) Biol. Reprod. 50 (Suppl. 1):113; Suttner et al. (1998) Biol. Reprod. 59 (Suppl.): (Accepted for publication). Following serum-free MEM treatment, cells were treated for 24 hr with (+) or (−) enantiomers of Z-BDDA or estradiol at 0. 1, 1, and 10 μM, or EtOH vehicle control in serum-free MEM. Cells were subsequently processed using an in situ apoptosis assay kit (Apotag-Plus In Situ Apoptosis Kit-Peroxidase, Edition 1.1., Oncor, Gaithersburg, Md., 1995) to study ovarian apoptosis (Suttner et al., 1998). The slides were washed in two changes of PBS for 5 min each, and then quenched in 2% hydrogen peroxide in methanol for 5 min. at room temperature. After pre-treatment with an equilibration buffer, 13 ul of Terminal deoxynucleotidyl Transferase (TdT) diluted with reaction buffer and distilled water were added, and the slides were incubated for 1 h at 37° C. in a humidified chamber. After this 1 h period, the slides were put in pre-warmed stop wash buffer in the incubator for 30 min to stop the reaction. Next, the slides were washed in three changes of PBS for 5 min. each, and the anti-digoxigenin peroxidase was placed on the slides for 30 min. in a humidified chamber at room temperature. […] The degree of apoptosis for the calorimetric apoptosis assay was quantified microscopically using an image analysis system (Optimas 5.23, Optimas Users Guide, 5th Edition, Redmond, Wash.). Ten measurements (captured images) were taken for each concentration based on a pre-determined grid. […] Percentage area of each color was then quantitated using the image analysis system. […]

[4] = female rats (uterus), 2.5 ug/g of body weight daily, six weeks, mean ± SEM
[5] = female rats, 2.5 ug/g of body weight daily, six weeks, mean ± SEM
[6] = male rats (testis), 2.5 ug/g of body weight daily, five weeks, mean ± SEM
[7] = male rats, 2.5 ug/g of body weight daily, five weeks, mean ± SEM
[8] = female rats (uterus), 2.5 ug/g of body weight daily
[9] = female rats, 2.5 ug/g of body weight daily, g of weight change/g of food intake
[10] = female rats, 2.5 ug/g of body weight daily
[11] = male rats (testis), 2.5 ug/g of body weight daily
[12] = male rats, 2.5 ug/g of body weight daily

CC[C@H]1c2ccc3cc(O)ccc3c2CC[C@@]1(C)C(=O)O [(+)-Z-BDDA, (+)-Z-bisdehydrodoisynolic acid]
Uterus/testis weight (g) [1, 4]: 4.02 ± 0.91^1 g | Blood glucose [1, 5]: 89.60 ± 6.15 mg/dL | FER (food efficiency ratio) [1, 5]: 0.026 ± 0.008^1 | Food intake [1, 5]: 693.6 ± 72.3 g | Uterus/testis weight (g) [1, 6]: 0.61 ± 0.02^1 g | testosterone ([1]; male rats, 2.5 μg/g daily): significant (p<0.05) testosterone suppression | Blood glucose (mg/dl) [1, 7]: 94.00 ± 10.18^1 mg/dl | FER (food efficiency ratio) [1, 7]: −0.02 ± 0.01^1 | Prostate weight (g) [1, 7]: 0.02 ± 0.00^1 g | Food intake [1, 7]: 676.0 ± 33.2 g | Uterus/testis weight (g) [2, 8]: 2.57 ± 0.79^1,2 g | Food intake ([2]; female rats): 315.2 ± 18.4 g | FER (food efficiency ratio) [2, 9]: 0.045 ± 0.017^4 | Cholesterol (mg/dl) [2, 10]: 35.1 ± 8.6^1 mg/dl | Visceral fat (g) [2, 10]: 2.1 ± 0.3^1,3 g | Uterus/testis weight (g) [2, 11]: 0.84 ± 0.06^1,2 g | Cholesterol (mg/dl) [2, 12]: 24.6 ± 2.2^1,2,3 mg/dl | FER (food efficiency ratio) [2, 12]: −0.174 ± 0.027^1,2,3,4 | Prostate weight (g) [2, 12]: 0.13 ± 0.04^1,2,3 g | Visceral fat (g) [2, 12]: 5.1 ± 0.2^2 g | Food intake (g) [2, 12]: 326.0 ± 9.5^1 g | mean apoptosis (% area) [3]: 61.1%

C[C@]12CCC3c4ccc(O)cc4CCC3[C@@H]1CCC2O (single isomer, unassigned; (+)) [estradiol, (+)-17β-estradiol, reference compound]
Uterus/testis weight (g) [1, 4]: 4.83 ± 1.30^1 g | Blood glucose [1, 5]: 100.80 ± 10.22 mg/dL | FER (food efficiency ratio) [1, 5]: 0.039 ± 0.004 | Food intake [1, 5]: 699.6 ± 33.7 g | Uterus/testis weight (g) [1, 6]: 0.74 ± 0.04^1 g | testosterone ([1]; male rats, 2.5 μg/g daily): significant (p<0.05) testosterone suppression | Blood glucose [1, 7]: 108.00 ± 10.90 mg/dL | FER (food efficiency ratio) [1, 7]: 0.00 ± 0.01^1 | Prostate weight [1, 7]: 0.06 ± 0.02 g | Food intake [1, 7]: 590.4 ± 47.7 g | body weight (percent weight change) ([1]; male rats, both experiments (FIGS. 2 and 3), 2.5 μg/g daily): dramatic reduction in body weight | Uterus/testis weight [2, 8]: 1.58 ± 0.15 g | Food intake ([2]; female rats): 371.6 ± 17.8 g | FER (food efficiency ratio) [2, 9]: 0.035 ± 0.011 | Cholesterol (mg/dl) [2, 10]: 44.9 ± 15.8^1 mg/dl | Visceral fat (g) [2, 10]: 0.8 ± 0.1^1 g | Uterus/testis weight (g) [2, 11]: 0.94 ± 0.13^1,2 g | Cholesterol (mg/dl) [2, 12]: 51.5 ± 9.5^1,2 mg/dl | FER (food efficiency ratio) [2, 12]: −0.057 ± 0.012^1,2 | Prostate weight (g) [2, 12]: 0.09 ± 0.01^1,2 g | Visceral fat (g) [2, 12]: 4.2 ± 0.4^2 g | Food intake (g) [2, 12]: 298.2 ± 18.8^1 g | percent apoptosis ([3]; 24 hr treatment at 10 μM): 23.8% | mean apoptosis (% area) [3]: 46.5%

— patent publication US6608111B1, “Method for treating or preventing prostatic conditions” (Southern Illinois University Office of Research, …, priority 1998, dated 2003)
